Results reported in patent US20090312282A1, “Novel Low Molecular Weight Hyaluronic Acid and/or Salt Thereof, and Cosmetic Preparation, Pharmaceutical Composition, and Food Composition Each Using Same” (Q. P. Corporation, priority 2006, published 2009).

Test system: hairless mice (Hos: HR-1)
Settings: mouse, in vivo
Source text: In this test example, the low-molecular-weight hyaluronic acid according to the invention was percutaneously administered to a mouse to evaluate the percutaneous absorbability of the low-molecular-weight hyaluronic acid. Six-week-old (when the test was started) male hairless mice (Hos: HR-1) (purchased from Japan SLC Inc.) […] Specifically, the hyaluronic acid was labeled with a fluorescent substance by allowing a carboxylic acid group of the hyaluronic acid to react with DMEQ-hydrazide. […] The HPLC analysis conditions were as follows. • Analyzer: Waters 2690 470 • Column: Shodex suger KS807 (gel filtration column) • Column temperature: 40° C. • Flow rate: 0.5 mL/min • Injection amount: 20 microliters • Mobile phase: 0.003 mol/L phosphoric acid buffer containing 0.15 mol/L sodium chloride • Fluorescence analysis conditions: excitation wavelength: 365 nm, fluorescence wavelength: 447 nm […] It is considered that the peak was also detected in the test group 3 due to a fluorescent substance (e.g., vitamin, aromatic amino acid, and cholesterol) originally contained in the living body. […] The STD solution was analyzed by HPLC to determine the peak area.

Row | Substance | fluorescence intensity (peak) in the skin compared with control group (test group 3) | amount of percutaneous absorption of hyaluronic acid (increase in hyaluronic acid per g of skin)
1 | hyaluronic acid [Sample 2] | no significant difference | 
2 | low-molecular-weight hyaluronic acid [Example 2] |  | increased with time when the sample attachment time was 1 to 3 hours, and almost reached equilibrium when the sample attachment time was 3 to 5 hours
